This note sets out measurements from ChEMBL document CHEMBL5357075, “Innovative Therapeutic Strategies in TYK2-Targeted Treatments: From Cancer to Autoimmune Disorders” (ACS Med Chem Lett, 2024).

Experiment [1] concerns the target T1, Non-receptor tyrosine-protein kinase TYK2 (Homo sapiens, UniProt P29597). The experiment is described as follows: Inhibition of TYK2 in HEK-Blue IL-23 cells pretreated for 60 mins followed by IL-23 stimulation for 22 to 24 hrs by Quanti-Blue based SEAP assay. Format: cell-based.
Experiment [2] addresses T1, Non-receptor tyrosine-protein kinase TYK2. The experiment is described as follows: Inhibition of TYK2 in HEK-Blue alpha/beta cells pretreated for 60 mins followed by IFN-alpha stimulation for 16 to 18 hrs by Quanti-Blue based SEAP assay. Format: cell-based.

T1 sequence (P29597 whole entry): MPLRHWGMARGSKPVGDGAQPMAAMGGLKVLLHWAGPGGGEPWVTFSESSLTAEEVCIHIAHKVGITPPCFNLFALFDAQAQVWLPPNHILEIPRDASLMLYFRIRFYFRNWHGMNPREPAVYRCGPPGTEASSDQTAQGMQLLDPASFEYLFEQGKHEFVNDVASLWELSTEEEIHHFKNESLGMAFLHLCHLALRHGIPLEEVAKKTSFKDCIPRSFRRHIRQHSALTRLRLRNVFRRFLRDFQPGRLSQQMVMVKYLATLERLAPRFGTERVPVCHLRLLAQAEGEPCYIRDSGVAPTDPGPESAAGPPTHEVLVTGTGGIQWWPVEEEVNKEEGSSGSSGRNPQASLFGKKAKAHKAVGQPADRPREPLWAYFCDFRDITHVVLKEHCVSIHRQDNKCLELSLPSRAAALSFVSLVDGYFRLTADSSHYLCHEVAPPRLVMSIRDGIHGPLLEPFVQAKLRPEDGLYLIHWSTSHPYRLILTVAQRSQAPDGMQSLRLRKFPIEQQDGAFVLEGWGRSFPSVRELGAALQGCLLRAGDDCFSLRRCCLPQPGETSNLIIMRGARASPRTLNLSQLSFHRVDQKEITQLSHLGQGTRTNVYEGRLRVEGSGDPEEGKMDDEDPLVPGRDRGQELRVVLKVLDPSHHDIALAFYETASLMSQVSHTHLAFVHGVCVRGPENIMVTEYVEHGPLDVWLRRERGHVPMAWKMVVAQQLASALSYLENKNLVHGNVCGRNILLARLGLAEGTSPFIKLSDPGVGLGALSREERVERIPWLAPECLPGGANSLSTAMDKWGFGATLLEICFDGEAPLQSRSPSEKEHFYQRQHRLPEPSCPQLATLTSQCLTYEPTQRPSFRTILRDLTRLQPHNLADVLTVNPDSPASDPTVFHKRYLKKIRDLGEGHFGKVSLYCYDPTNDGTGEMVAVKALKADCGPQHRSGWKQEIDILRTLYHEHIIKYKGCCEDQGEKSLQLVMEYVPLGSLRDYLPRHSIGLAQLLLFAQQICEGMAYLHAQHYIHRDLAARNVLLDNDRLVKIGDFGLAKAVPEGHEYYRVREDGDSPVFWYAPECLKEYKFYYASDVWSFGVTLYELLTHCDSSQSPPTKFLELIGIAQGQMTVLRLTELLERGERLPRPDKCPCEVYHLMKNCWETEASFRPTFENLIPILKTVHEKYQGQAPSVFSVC

`[2H]C([2H])([2H])CC(=O)c1cnc(NC(=O)C2CC2)cc1Nc1cccc2c1N(C)Cc1nc(C)nn1-2`: the IC50 in experiment [1] is less than 0.03 µM; in experiment [2], 0.03 µM.
For `[2H]C([2H])([2H])CC(=O)c1cnc(NC(=O)C2CC2)cc1Nc1cccc2c1N(C)[C@@H](C)c1nn(C)nc1-2`, the IC50 in experiment [1] and in experiment [2] was less than 0.03 µM in each case.
Take `[2H]C([2H])([2H])CC(=O)c1cnc(NC(=O)C2CC2)cc1Nc1nccc2c1N(C)Cc1nn(CC)nc1-2`: the results for the IC50 in experiment [1] and in experiment [2] were less than 0.03 µM and 0.03 µM, respectively.
